Results from patent US10688093B2, “Methods, compositions, and uses of novel Fyn kinase inhibitors” (priority 2015, dated 2020).

Each molecule was assayed against full-length recombinant human FYN A (Homo sapiens (Human), UniProt P06241) (assay: ADP-Glo Kinase Assay of FYN kinase inhibition). Details: secondary screen, re-synthesized and expanded compounds.
Format: biochemical
How it was run: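 ADP-Glo read-out of peptide phosphorylation after 90 min RT with 12.5 pmol ATP and 100 pg 12-mer substrate. Enzyme was N-GST full-length human FYN A from insect cells, 3 pg, pre-incubated 30 min with compound, 10 points from 10 μM top, 3-fold steps; IC50 from curve.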

Sequence of full-length recombinant human FYN A (P06241 whole entry): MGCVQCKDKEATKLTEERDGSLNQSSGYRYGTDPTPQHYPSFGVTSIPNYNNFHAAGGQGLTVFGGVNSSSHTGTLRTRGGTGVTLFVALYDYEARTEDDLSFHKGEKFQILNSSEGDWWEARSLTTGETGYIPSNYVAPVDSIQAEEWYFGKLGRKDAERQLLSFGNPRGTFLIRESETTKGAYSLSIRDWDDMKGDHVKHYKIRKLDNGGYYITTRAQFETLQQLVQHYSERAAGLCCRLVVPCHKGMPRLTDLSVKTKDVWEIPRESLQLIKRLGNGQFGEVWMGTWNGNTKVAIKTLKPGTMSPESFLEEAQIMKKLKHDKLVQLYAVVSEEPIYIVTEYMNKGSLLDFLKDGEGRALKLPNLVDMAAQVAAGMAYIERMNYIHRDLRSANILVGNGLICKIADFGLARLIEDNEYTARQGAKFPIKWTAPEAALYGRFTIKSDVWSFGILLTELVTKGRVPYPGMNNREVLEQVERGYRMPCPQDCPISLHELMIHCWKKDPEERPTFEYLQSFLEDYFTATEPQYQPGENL

Row | SMILES | IC50
1 | COc1cc(-c2cc(-c3ccc(N4CCNCC4)cc3)cnc2N)ccc1O [BF000707279, 4-[2-amino-5-(4-piperazin-1-ylphenyl)-3-pyridyl]-2-methoxy-phenol] | 60.9 nM
2 | CN1CCN(c2ccc(-c3cnc(N)c(-c4ccc(O)cc4)c3)cc2)CC1 [BF000710044, 4-[2-amino-5-[4-(4-methyl-piperazin-1-yl)phenyl]-3-pyridyl]-phenol] | 521 nM
3 | c1ccc(CNc2nn3c(-c4cccnc4)cnc3s2)cc1 [BF000714845, N-benzyl-5-(3-pyridyl)-imidazo[2,1-b][1,3,4]-thiadiazol-2-amine] | 634 nM
4 | CN(C)C(=O)c1cccc(-c2cnc3sc(NCc4ccccc4)nn23)c1 [BF000714847, 3-[2-(benzyl-amino)-imidazo[2,1-b][1,3,4]-thiadiazol-5-yl]-N,N-dimethyl-benzamide] | 1230 nM
5 | COc1cncc(-c2cnc3sc(NCc4ccccc4)nn23)c1 [BF000714862, N-benzyl-5-(5-methoxy-3-pyridyl)-imidazo[2,1-b][1,3,4]-thiadiazol-2-amine] | 217 nM
6 | COc1cncc(-c2cnc3sc(NCC4CCOCC4)nn23)c1 [BF000714923, 5-(5-methoxy-3-pyridyl)-N-(tetra-hydropyran-4-ylmethyl)-imidazo[2,1-b][1,3,4]-thiadiazol-2-amine] | 293 nM
7 | COc1cncc(-c2cnc3sc(NCc4cccs4)nn23)c1 [BF000714968, 5-(5-methoxy-3-pyridyl)-N-(2-thienyl-methyl)-imidazo[2,1-b][1,3,4]-thiadiazol-2-amine] | 437 nM
8 | COc1cncc(-c2cnc3sc(NCc4ccc5c(c4)OCO5)nn23)c1 [BF000714981, N-(1,3-benzodioxol-5-ylmethyl)-5-(5-methoxy-3-pyridyl)-imidazo[2,1-b][1,3,4]-thiadiazol-2-amine] | 289 nM
9 | CN(C)C(=O)c1cccc(-c2cnc3sc(NCC4CCOCC4)nn23)c1 [BF000715802, N,N-dimethyl-3-[2-(tetra-hydropyran-4-ylmethyl-amino)-imidazo[2,1-b][1,3,4]-thiadiazol-5-yl]benzamide] | 1360 nM
10 | COc1ccc(-c2cnc3sc(NC4CCC(O)CC4)nn23)cc1OC (stereo not drawn) [BF000717406, 4-[[5-(3,4-dimethoxy-phenyl)-imidazo[2,1-b][1,3,4]-thiadiazol-2-yl]amino]-cyclohexanol] | 440 nM
11 | CN(C)C(=O)c1cccc(-c2cnc3sc(NC4CCC(O)CC4)nn23)c1 (stereo not drawn) [BF000717418, 3-[2-[(4-hydroxy-cyclohexyl)-amino]-imidazo[2,1-b][1,3,4]-thiadiazol-5-yl]-N,N-dimethyl-benzamide] | 288 nM
12 | COc1cc(-c2cnc3sc(NCC4CCOCC4)nn23)ccc1O [BF000717555, 2-methoxy-4-[2-(tetrahydro-pyran-4-ylmethyl-amino)-imidazo[2,1-b][1,3,4]-thiadiazol-5-yl]phenol] | 710 nM
13 | OCCCNc1ccc2ncc(-c3ccncc3)n2n1 [BF000722253, 3-[[3-(4-pyridyl)-imidazo[1,2-b]pyridazin-6-yl]amino]-propan-1-ol] | 538 nM
14 | COc1cc(-c2ccc3ncc(-c4cccc(NC(C)=O)c4)n3n2)ccc1O [BF000726183, N-(3-[6-(4-hydroxy-3-methoxy-phenyl)-imidazo[1,2-b]pyridazin-3-yl]phenyl]-acatamide] | 167 nM
15 | OCc1cccc(-c2cnc3ccc(-c4cccc(O)c4)nn23)c1 [BF000726195] | 1170 nM
16 | COc1ccc(-c2ccc3ncc(-c4cccc(NC(C)=O)c4)n3n2)cc1OC [BF000726345, N-[3-[6-(3,4-dimethoxy-phenyl)-imidazo[1,2-a]pyridazin-3-yl]phenyl]-acatamide] | 313 nM
17 | CC(=O)Nc1cccc(-c2ccc3ncc(-c4cccc(NC(C)=O)c4)n3n2)c1 [BF000726346, N-[3-[3-(3-acetamido-phenyl)-imidazo[1,2-b]pyridazin-6-yl]phenyl]-acetamide] | 648 nM
18 | Oc1cccc(-c2cnc3ccc(-c4ccncc4)nn23)c1 [BF000726352, 3-[6-(4-pyridyl)-imidazo[1,2-b]pyridazin-3-yl]phenol] | 342 nM
